Results: patent US12459951B2, “Compounds that interact with RAS superfamily proteins for treatment of cancers, inflammatory diseases, rasopathies, and fibrotic disease” (SHY Therapeutics, LLC, priority 2022, dated 2025)

Tests used:
Akt phosphorylation = test: Akt Phosphorylation Assay (western blot), Panc-1; assay type: cell-based, human; conditions: at 10 μM, * = activation
Description: Protocol for Western Akt Cell-Based Phosphorylation Assay
This assay is referred to as the “Akt Phosphorylation Assay” throughout this application.
Human tumor-derived pancreatic cancer cell line Panc-1 (expressing KRas G12D mutant) was purchased from American Type Culture Collection and grown in complete DMEM-High Glucose supplemented with penicillin (100 U/mL), streptomycin (100 μg/mL), and 10% heat-inactivated FBS at 37° C. in a humidified incubator with 5% CO2.
Method 1: Cells were plated at 350000 cells/well density in a 12-well plate, allowed 3 hours to adhere to the plate, then starved in the appropriate medium in the presence of 0.5% FBS overnight. The small molecules to be tested were added to the cells in the final concentration of 10 μM in the presence of 0.3% DMSO for 6 hours incubation at 37° C. Next, cells were stimulated with 1.5 ng/ml EGF for 15 minutes then cells were lysed with lysis buffer containing 1% Triton X-100, EDTA, and Halt™ Protease & Phosphatase Inhibitor Cocktail (Thermo Scientific). Protein concentration was assessed by BCA protein assay (Thermo Scientific). Phosphorylation level of Akt was determined by western blot.
Method 2: Cells were plated at 350000 cells/well density in a 12-well plate in 10% FBS. The next day small molecules to be tested were added to the cells in the final concentration of 10 μM in the presence of 0.3% DMSO for 6 hours incubation at 37° C. For IC50 value determination, serial dilutions of compounds were added to cells under the same conditions. Next, cells were lysed with lysis buffer containing 1% Triton X-100, EDTA, and Halt™ Protease & Phosphatase Inhibitor Cocktail (Thermo Scientific). Protein concentration was assessed by BCA protein assay (Thermo Scientific). Phosphorylation level of Akt was determined by western blot.
Western blot protocol: Equal amounts of protein (15-50 μg) were separated by SDS-PAGE and transferred to nitrocellulose membranes (Invitrogen by Thermo Fisher Scientific). The membrane was stained with Ponceau S Stain (Boston BioProducts) to verify uniform protein loading. Membranes were blocked with 10% milk and phosphorylation levels of Akt were assessed by incubating overnight at 4° C. with anti-phospho-Akt (Ser473) antibody (Cell Signaling) followed by HRP-conjugated secondary antibody (Jackson Immunoresearch, West Grove, PA). Bands were incubated in Amersham ECL Prime Western Blotting Detection Reagent (GE Healthcare) and visualized using the ChemiDoc MP imaging system (Bio-Rad).

IL6 = test: IL-6 Quantification Assay (ELISA), LPS-stimulated RAW 264.7; assay type: cell-based; design: inhibition: dose or concentration left out as unconfirmed; conditions: Mus musculus, RAW264.7; read-out: IL-6: % inh.
KRas G12D mutant = test: Ras GTP Binding Domain Inhibition Assay (Ras Superfamily Assay); conditions: 20 μM compound; for KRas G12D mutant + SOS: % inh.: with SOS; for KRas G12D mutant: % inh.: without SOS
Text: (§1) Biological Example 3: Ras GTP Binding Domain Inhibition Assay
(§2) The assays described in Example 3 are collectively referred to as the “Ras Superfamily Assay” throughout this application.
(§3) A Ras Superfamily Activity Assay (as disclosed in International Application No. PCT/US2018/038613, filed Jun. 20, 2018, which is incorporated by reference in its entirety) was used as a specific assay to evaluate compounds against the following for the following Ras Superfamily proteins: KRas wild type, KRas Q61H mutant, KRas G12C mutant, KRas G12D mutant, Rac-1, and Rho-A.
(§4) • 25 mM Tris-HCl, pH 7.4 • 27 mM KCl • 137 mM NaCl • 1 mM MgCl2 • 1 mM DTT Buffer-II: • 50 mM Tris-HCl, pH 7.0 • 1 mM MgCl2 • 1 mM DTT
(§5) The small GTPases proteins: KRas wild type. KRas Q61H mutant, KRas G12C mutant, KRas G12D mutants, Rac-1, and Rho-A were expressed as His-tagged proteins. In addition, the Guanosine nucleotide Exchange Factor (GEF) Sos protein (residues 556-1049) was expressed as a His-tagged protein. In cells, the guanine nucleotide exchange factor Sos protein promotes activation of Ras proteins by stimulating an exchange of GDP for GTP. The inclusion of Sos to the Ras GTP binding domain inhibition assay may be considered as an alternative representation of physiological cellular conditions for evaluating the inhibitory activity of some of the tested small molecules.
(§6) For the assay, all purified small GTPases proteins were diluted in Buffer-I or Buffer-II to a final concentration of 10-30 μg/mL. 200 μL of each diluted protein was added to a nickel-coated 96-well plate and incubated overnight at 4° C. Then the protein solution was discarded and 200 μL of Buffer-I or Buffer-II was added to each well in the presence of 1% DMSO. Compounds to be tested were added to the protein-coated wells at final concentration of 20 μM, and incubated for 3 hours at room temperature with and without 10-30 μg/mL of Sos added to the final hour of the incubation. When performing IC50 measurements a serial dilution of all tested concentrations was added. Then Cy3-GTP or Cy5-GTP was added to each well to a final concentration of 100 nM. The labeled GTP was incubated for 45 minutes at room temperature. Following GTP incubation, wells were washed 3× in Buffer-I or Buffer-II and 200 μL of Buffer-I or Buffer-II was added to each well. Following washes, the amount of bound labeled-GTP was measured using a SpectraMax M3 (Molecular Devices).

KRas wild type = test: as above; conditions: 20 μM compound; for KRas wild type + SOS: % inh.: with SOS; for KRas wild type: % inh.: without SOS
Text: as §1, §2, §3, §4, §5, §6

Rac-1 = target: T1, Rac-1 (Homo sapiens, UniProt P63000); test: as above; conditions: read-out: Rac-1: % inh.
T1 construct: made in house
Text: as §1, §2, §3, §4, §5, §6

Row | Compound | % inh of Akt phosphorylation in Panc-1 (Akt phosphorylation) | inhibition (IL6) [%] | KRas G12D mutant + SOS: % inh. (KRas G12D mutant) | KRas G12D mutant: % inh. (KRas G12D mutant) | KRas wild type + SOS: % inh. (KRas wild type) | KRas wild type: % inh. (KRas wild type) | inhibition at 20 µM (Rac-1) [%]
1 | COc1cc(-c2cn3nc(-c4nccn4C)nc(N[C@@H]4CC[C@@H](OC)C4)c3c2C)ccn1 (racemic) [Compound 163, rac N-((1R,3R)-3-Methoxycyclopentyl)-6-(2-methoxypyridin-4-yl)-5-methyl-2-(1-methyl-1H-imidazol-2-yl)pyrrolo[2,1-f][1,2,4]triazin-4-amine] | A* (1-25% activation) | 75 to 100 | 0 (0 = 0% inhibition) | 0 (0 = 0% inhibition) | 0 (0 = 0% inhibition) | 0 (0 = 0% inhibition) | 0
2 | Cc1c(-c2ccn(C3CC3)n2)cn2nc(-c3nccn3C)nc(O)c12 [Compound 134, 6-(1-Cyclopropyl-1H-pyrazol-3-yl)-5-methyl-2-(1-methyl-1H-imidazol-2-yl)pyrrolo[2,1-f][1,2,4]triazin-4-ol] | A (1-25% inhibition) | 1 to 24 | A (A = 1-25% inhibition) | A (A = 1-25% inhibition) | 0 (0 = 0% inhibition) | 0 (0 = 0% inhibition) | 1 to 25
3 | COc1ccnc(Nc2nc(-c3nccn3C)nn3cc(-c4ccn(C(F)F)n4)c(C)c23)n1 [Compound 95, 6-(1-(Difluoromethyl)-1H-pyrazol-3-yl)-N-(4-methoxypyrimidin-2-yl)-5-methyl-2-(1-methyl-1H-imidazol-2-yl)pyrrolo[2,1-f][1,2,4]triazin-4-amine] | D* (85-100% activation) | 1 to 24 | C (C = 50-75% inhibition) | C (C = 50-75% inhibition) | B (B = 26-49% inhibition) | C (C = 50-75% inhibition) | 76 to 100
4 | COc1cc(Nc2nc(-c3nccn3C)nn3cc(-c4ccn(C(C)C)n4)c(C)c23)ncn1 [Compound 6, 6-(1-Isopropyl-1H-pyrazol-3-yl)-N-(6-methoxypyrimidin-4-yl)-5-methyl-2-(1-methyl-1H-imidazol-2-yl)pyrrolo[2,1-f][1,2,4]triazin-4-amine] | 0 (0% inhibition) | 75 to 100 | C (C = 50-75% inhibition) | D (D = 76-100% inhibition) | C (C = 50-75% inhibition) | D (D = 76-100% inhibition) | 50 to 75
5 | CO[C@H]1CC[C@@H](Nc2nc(-c3ccccn3)nn3cc(-c4ccn(C(C)C)n4)c(C)c23)C1 (racemic) [Compound 9, rac 6-(1-Isopropyl-1H-pyrazol-3-yl)-N-((1R,3S)-3-methoxycyclopentyl)-5-methyl-2-(pyridin-2-yl)pyrrolo[2,1-f][1,2,4]triazin-4-amine] | 0 (0% inhibition) | 1 to 24 | 0 (0 = 0% inhibition) | 0 (0 = 0% inhibition) | 0 (0 = 0% inhibition) | 0 (0 = 0% inhibition) | 0
6 | Cc1c(-c2ccn(C(C)C)n2)cn2nc(-c3nccn3C)nc(Nc3nccn3C)c12 [Compound 93, 6-(1-Isopropyl-1H-pyrazol-3-yl)-5-methyl-N,2-bis(1-methyl-1H-imidazol-2-yl)pyrrolo[2,1-f][1,2,4]triazin-4-amine] | D* (85-100% activation) | 75 to 100 | D (D = 76-100% inhibition) | D (D = 76-100% inhibition) | D (D = 76-100% inhibition) | D (D = 76-100% inhibition) | 76 to 100
7 | Cc1c(-c2ccn(C(C)C)n2)cn2nc(-c3nccn3C)nc(Nc3nccc(OCCO)n3)c12 [Compound 121, 2-((2-((6-(1-Isopropyl-1H-pyrazol-3-yl)-5-methyl-2-(1-methyl-1H-imidazol-2-yl)pyrrolo[2,1-f][1,2,4]triazin-4-yl)amino)pyrimidin-4-yl)oxy)ethan-1-ol] | B* (26-49% activation) | 50 to 74 | D (D = 76-100% inhibition) | D (D = 76-100% inhibition) | C (C = 50-75% inhibition) | D (D = 76-100% inhibition) | 76 to 100
8 | Cc1c(-c2ccn(C)n2)cn2nc(-c3nccn3C)nc(Nc3ccn(C4CC4)n3)c12 [Compound 111, N-(1-Cyclopropyl-1H-pyrazol-3-yl)-5-methyl-2-(1-methyl-1H-imidazol-2-yl)-6-(1-methyl-1H-pyrazol-3-yl)pyrrolo[2,1-f][1,2,4]triazin-4-amine] | D* (85-100% activation) | 75 to 100 | B (B = 26-49% inhibition) | B (B = 26-49% inhibition) | A (A = 1-25% inhibition) | C (C = 50-75% inhibition) | 26 to 49
